Assays:
Curvularia [1] = test: Disease infection of turf flats treated with Merit 75 WP (Example 5); format: in vivo; conditions: for percent infection (Curvularia): Kentucky bluegrass
Protocol: Four sets of twenty-four 10 in.×12 in. (25 cm×30 cm) flats were filled with sterilized sand and each set was seeded with either Kentucky bluegrass, Crenshaw L-93 bentgrass, bermudagrass, or K-31 tall fescue. Each flat was fertilized weekly with 20-20-20 soluble fertilizer at 0.144 g per 200 ml of water (equivalent to 4 lbs/year/acre). The trial was replicated once.
Twelve flats in each set were treated with Merit 75 WP equivalent to 8.6 oz/acre per 80 gal. (ca. […] per 100 liter) of water (spray application) for each turf variety and twelve flats remained untreated. Replicate 1 was treated 25 days after seeding and Replicate 2 was treated 28 days after seeding. Disease outbreaks began approximately the time of treatment. Assessments of the infection percentage were done at 13 and 25 days after treatment. […] The percent disease infection at the first and second assessments in the first trial was 22 and 26%, respectively, while the percent infection in the imidacloprid treated flats was 1 and 8% at the first and second assessment dates, respectively. In the second trial, disease pressure was lower, but the untreated flats had 3 and 8% infection at the first and second assessment dates, whereas the imidacloprid treated flats had 0.5 and 2% at the two assessment dates.

Rhizoctonia solani = test: Brown Patch infection of bentgrass 'Crenshaw' turf flats (Example 6); format: in vivo; conditions: for % Brown Patch infection: imidacloprid alone 481 g/Ha
Protocol: Bentgrass var. ‘Crenshaw’ was seeded in 10 in.×12 in. (25 cm×30 cm) peat flats containing steam sterilized 80/20 greens mix. Flats were watered daily with an overhead misting system. Plots were fertilized on 11/20 with 200 ml of a 288 ppm 20-20-20 Regal Green fertilizer solution. Treatments were applied with a CO2 backpack sprayer at 2.0 gal./1000 ft^2 (i.e., 81.5 liters/1000 m^2) and a single 8003E nozzle. Imidacloprid was applied on 16 days after seeding and fungicides applied 21 days after seeding and 35 days after seeding. Plots were inoculated 18 days after seeding with 0.25 g of fescue seed infected with Rhizoctonia solani. Results are presented in Table 4 (where B+a number represents days after application of the herbicide component).

Pythium aphanedermatum = test: Pythium infection of bentgrass sod flats (Example 7); format: in vivo; conditions: for % Pythium: imidacloprid alone 481 g/Ha
Protocol: Bentgrass sod var. ‘Crenshaw’ was cut and placed in 6″×7″ (15 cm×17.5 cm) peat flats containing steam-sterilized 80/20 greens mix during the spring. To create conditions favorable for the development of Pythium, the flats were watered daily with an overhead misting system to provide conditions favorable to the development on disease. In addition, plots were fertilized weekly with 100 ml of a 244 ppm 20-20-20 Regal Green fertilizer solution. Imidacloprid at 481 g/Ha was applied four days after being placed in the flats. Fungicides were applied ten days after application of imidacloprid with a CO2 backpack sprayer at 2.0 gal. /1000 ft^2 (i.e., 81.5 liters/1000 m^2) using a single 8003E nozzle. Plots were inoculated with 2 one-inch […] sections of Pythium aphanedermatum-infested fescue leaves three days after application of the fungicides, and the percent infection in the plots was measured for the next 20 days. Results are presented in Table 5 (where A+a number represents days after application of imidacloprid).

Curvularia [2] = test: Curvularia on bermudagrass 'TifEagle', golf course field trial (Example 8); format: in vivo; conditions: for % turf infected with disease (Curvularia): imidacloprid 0.4 lb/A single application, fungicide programs every two weeks
Protocol: Established bermudagrass (cv. ‘TifEagle’) on a golf course in Florida was treated in late spring with imidacloprid at 0.4 lb/A (i.e., 0.45 kg/Ha). For comparison, two different fungicide spray programs were applied to nearby plots. The two fungicide spray programs were (1) fosetyl+iprodione at (4 oz.+4 oz.) per 1000 ft^2 [(1.2 g+1.2 g) per m^2] alternated with fosetyl+trifloxystrobin at (4 oz.+0.15 oz.) per 1000 ft^2 [(1.2 g+46 mg) per m^2], and (2) fosetyl+iprodione at (4 oz.+4 oz.) per 1000 ft^2 [(1.2 g+1.2 g) per m^2] alternated with flutolanil at 2.2 oz product/1000 ft^2 (0.67 g) per m^2). The fungicide applications were made every two weeks. In comparison, the imidacloprid-treated plots received only a single application of active ingredient.
At the time of treatment, Curvularia disease was just beginning to develop (i.e., the mean percent infection in all plots was 3% of the turf cover). The spread of the disease was monitored weekly for twelve weeks, and turf quality, measured on a 0 to 9 scale (0=dead turf and 9=perfect quality). […] Effects of the various treatments on disease incidence are described in Table 6 (where A+a number represents days after application of imidacloprid). Data are expressed as % turf infected with disease.

Pythium aphandermatum = test: Pythium infection of bentgrass 'Crenshaw' turf flats (Example 2); format: in vivo, P. aphanidermatum; conditions: imidacloprid alone 481 g/Ha
Protocol: Bentgrass var. ‘Crenshaw’ was seeded in 10 in.×12 in. (ca. 25 cm×30 cm) peat flats containing steam sterilized 80/20 greens mix. Flats were watered daily with an overhead misting system. Plots were fertilized on 26 days later with 200 ml of a 288 ppm 20-20-20 Regal Green fertilizer solution. Treatments were applied with a CO2 backpack sprayer at 2.0 gal./1000 ft^2 (i.e., 81.5 liters/1000 m^2), with a single 8003E nozzle. lmidacloprid (481 g/Ha) was applied the same day and mancozeb fungicide was applied one week later. Two doses of each fungicide were tested. Plots were inoculated with Pythium aphandermatum 2 days after the fungicides were applied by placing two 1-in (2.5-cm) pieces of infested fescue leaves on each flat. Results are presented in Table 2 (where B+a number represents days after application of the herbicide component).

[3] = system: Sclerotinia homoeocarpa (Dollar Spot); test: Dollar Spot infection of bentgrass 'Crenshaw' turf flats (Example 1); format: in vivo; conditions: for % Dollar Spot: imidacloprid alone 481 g/Ha
Protocol: Bentgrass var. ‘Crenshaw’ was seeded in 10 in.×12 in. (25 cm×30 cm) peat flats containing steam sterilized 80/20 greens mix. Flats were watered daily with an overhead misting system. Plots were fertilized with 200 ml of a 288 ppm 20-20-20 Regal Green fertilizer solution 23 days later. lmidacloprid (481 g/Ha) was applied according to the Merit® insecticide label the same day that fertilizer was applied. Fungicide treatments were applied 7 days later with a CO2 backpack sprayer at 2.0 gal./1000 ft^2 (i.e., 81.5 liters/1000 m^2) with a single 8003E nozzle. Two doses of each fungicide were tested. Plots were inoculated with Sclerotinia homoeocarpa (Dollar Spot) 2 days after the fungicides were applied by placing two 1-in. (2.5-cm) pieces of infested fescue leaves on each flat. Results are presented in Table 1 (where B+a number represents days after application of the herbicide component).

grass = test: Grass pot trial, dry weight and visual vigor under powdery mildew (Example 3); format: in vivo; conditions: 8 WAT, 1 to 5 scale, powdery mildew infestation, in words
From the text: Six-inch (15-cm) diameter pots were filled to the rim with ProMix® BX potting soil and leveled off. Grass seed (0.5 g) was distributed evenly over the whole mix surface. The seed was watered in very gently. The grass was fertilized once 17 days later with Peters 20-10-20 at 100 ppm. The first cut was done on 11 days later; the grass was allowed to re-grow and cut 26 days later. Cutting was done at 2 in. (5 cm) height, using a round plastic cylinder that fit over the pot. The cut was made with hedge sheers and finished with scissors. Treatments were applied one day later using a volume of 20 ml per pot, followed with 117 ml of water/pot. The grass clippings were harvested an.d dried for dry weight determination 2 weeks after treatment (“WAT”) and 4 WAT. The grass was rated visually for vigor 8 WAT, using a 1 to 5 scale, before harvesting at the soil line. Dry weight and vigor data were subjected to analysis of variance (Fisher's Protected LSD, P=0.05).
The grass had germinated well within 30 days. Powdery mildew was noticed on some plants at 43 days after seeding, and became widespread in the plot. The powdery mildew coating appeared to grow more densely on the untreated plants. […] The invasion of the powdery mildew prevented the assessment of imidacloprid in the absence of pest pressure but it was serendipitously discovered that imidacloprid could have an effect on disease resistance in turf.

powdery mildew = test: Greenhouse trial, powdery mildew severity on Kentucky bluegrass (Example 4); format: in vivo, Erysiphe graminis; conditions: for Powdery mildew rating: 1 = best (no disease) to 9 = dead

Structure (SMILES): O=[N+]([O-])NC1=NCCN1Cc1ccc(Cl)nc1 [imidacloprid]
- percent infection (Curvularia) (Curvularia [1]; first trial, first assessment (13 days after treatment), untreated 22%): 1%
- percent infection (Curvularia) (Curvularia [1]; first trial, second assessment (25 days after treatment), untreated 26%): 8%
- percent infection (Curvularia) (Curvularia [1]; second trial, first assessment, untreated 3%): 0.5%
- percent infection (Curvularia) (Curvularia [1]; second trial, second assessment, untreated 8%): 2%
- control of the other diseases on the other turf varieties (Curvularia [1]; bentgrass, bermudagrass, tall fescue, either trial, in words): did not provide control of the other diseases
- control of Curvularia on the Kentucky bluegrass (Curvularia [1]; both replicates, in words): good control of Curvularia
- % Brown Patch infection (Rhizoctonia solani; B + 6): 53.3%
- % Brown Patch infection (Rhizoctonia solani; B + 8): 73.3%
- % Brown Patch infection (Rhizoctonia solani; B + 10): 80.0%
- effect of imidacloprid alone on the disease (Brown Patch) (Rhizoctonia solani; in words): no effect on the disease
- % Pythium (Pythium aphanedermatum; A + 8): 17.5%
- % Pythium (Pythium aphanedermatum; A + 11): 32.5%
- % Pythium (Pythium aphanedermatum; A + 15): 40.0%
- % Pythium (Pythium aphanedermatum; A + 18): 38.8%
- % Pythium (Pythium aphanedermatum; A + 22): 25.0%
- % Pythium (Pythium aphanedermatum; A + 28): 12.0%
- Pythium in plots treated with imidacloprid alone versus untreated plots (Pythium aphanedermatum; from 11 days after treatment on, in words): much less Pythium than did the untreated plots
- % turf infected with disease (Curvularia) (Curvularia [2]; A + 1): 1%
- % turf infected with disease (Curvularia) (Curvularia [2]; A + 8): 1%
- % turf infected with disease (Curvularia) (Curvularia [2]; A + 15): 1%
- % turf infected with disease (Curvularia) (Curvularia [2]; A + 22): 0%
- % turf infected with disease (Curvularia) (Curvularia [2]; A + 29): 0%
- % turf infected with disease (Curvularia) (Curvularia [2]; A + 37): 0%
- % turf infected with disease (Curvularia) (Curvularia [2]; A + 43): 0%
- % turf infected with disease (Curvularia) (Curvularia [2]; A + 51): 16%
- % turf infected with disease (Curvularia) (Curvularia [2]; A + 58): 21%
- % turf infected with disease (Curvularia) (Curvularia [2]; A + 66): 54%
- % turf infected with disease (Curvularia) (Curvularia [2]; A + 72): 30%
- % turf infected with disease (Curvularia) (Curvularia [2]; A + 79): 34%
- % turf infected with disease (Curvularia) (Curvularia [2]; A + 86): 38%
- % turf infected with disease (Curvularia) (Curvularia [2]; A + 94): 16%
- development of Curvularia disease incidence compared with the other plots (Curvularia [2]; after 8 WAT to end of trial, in words): increased at a much slower rate than did the untreated control
- % Pythium (Pythium aphandermatum; B + 6): 11.7%
- % Pythium (Pythium aphandermatum; B + 8): 20.0%
- % Pythium (Pythium aphandermatum; B + 14): 36.7%
- % Dollar Spot ([3]; B + 7): 16.7%
- % Dollar Spot ([3]; B + 10): 28.3%
- % Dollar Spot ([3]; B + 13): 35.0%
- % Dollar Spot ([3]; B + 17): 38.3%
- % Dollar Spot ([3]; B + 21): 41.7%
- % Dollar Spot ([3]; B + 24): 48.3%
- effect of imidacloprid alone on incidence of disease (Dollar Spot) ([3]; imidacloprid alone, in words): no affect on incidence of disease
- visual vigor ratings (grass): visual vigor ratings indicate a benefit from the imidacloprid treatments
- Powdery mildew rating (powdery mildew; 2 Weeks after treatment, 0.25 lbs/A (0.28 kg/Ha)): 3.4
- Powdery mildew rating (powdery mildew; 2 Weeks after treatment, 0.4 lbs/A (0.45 kg/Ha)): 3.4
- Powdery mildew rating (powdery mildew; 2 Weeks after treatment, 1.0 lbs/A (1.12 kg/Ha)): 3.4
- disease severity rating (powdery mildew) (powdery mildew; 6 WAT evaluation, treatments of imidacloprid, untreated 4.2, 1 to 9 scale): 3.1
- Powdery mildew rating (powdery mildew; 6 Weeks after treatment, 0.25 lbs/A (0.28 kg/Ha)): 3.2
- Powdery mildew rating (powdery mildew; 6 Weeks after treatment, 0.4 lbs/A (0.45 kg/Ha)): 3.1
- Powdery mildew rating (powdery mildew; 6 Weeks after treatment, 1.0 lbs/A (1.12 kg/Ha)): 3.1
